Laboratory results: patent US8569242B2, “Method of treating degenerative disorders of the nervous system” (The Regents of the University of California, priority 2005, dated 2013)
Entries after “also recorded” stand apart in the source; their conditions may differ.

How the values were obtained:
splenocytes = test: FACS analysis of splenocytes for peripheral immune cell markers; type: in vivo, mouse; conditions: peptide-treated vs untreated PLP139-151 immunized mice, day 29
Description: FACS Analysis. Primary mouse splenocytes were isolated from control and γ^377-395 peptide-treated mice, immunized with PLP139-151, on day 29 after immunization. Cells were immunostained with antibodies to CD4, CD8, CD11b, CD11c, CD19, B220 (1:100, Biolegend, San Diego, Calif.) and analyzed on a Becton Dickinson FACSCalibur flow cytometer.

primary microglia = test: Morphometry of microglia activation (Isolectin B4 staining, cell size); type: cell-based, mouse; conditions: for effect on LPS-mediated microglia activation: LPS 1 μg/mL
Experimental: Culture of primary microglia cells. Microglia were isolated from cultures of mixed cortical cells as described (59). In brief, cortices from P1 mice were isolated and digested with trypsin (0.4%) for 20 minutes at 37° C. Cells from 4 pups were plated onto PDL-coated 75 cm2 tissue-culture flasks. The culture medium (DMEM, 10% heat-inactivated FBS, and 1% Pen/Strep) was changed on day 2. After 2-3 weeks in culture, the microglia were removed by the addition of 12 mM lidocaine (Sigma-Aldrich, St. Louis, Mo.) and orbital shaking (180 rpm) for 20 minutes at 37° C. The cells were centrifuged (350×G) and the pellet was resuspended in complete medium and plated onto PDL-coated tissue culture dishes. Microglia cell cultures were >95% pure as determined with three different markers, IsoB4, IBA-1 and CD11b. To immobilize fibrinogen, tissue culture dishes were incubated overnight with 50 μg/mL fibrinogen (Calbiochem, San Diego, Calif.) in 20 mM Tris (pH 7.5) and 0.1 M NaCl at 37° C. for all fibrinogen treatments. To serve as positive controls, LPS (Sigma-Aldrich, St. Louis, Mo.) was added to the media at 1 μg/mL.
Morphometry. Primary microglia were used for all morphologic analysis. Cells were plated on coated fibrinogen or in the presence of LPS for 72 hours. Microglia were fixed with methanol and immunostained with Isolectin B4 (1:300, Sigma-Aldrich, St. Louis, Mo.). Activated microglia were quantificated as those cells larger than 2,000 μm^2. Blocking experiments involved the daily administration of rat anti-CD11b (10 μg/mL, eBioscience, San Diego, Calif.), γ^377-395 peptide (200 μM) or rat IgG (10 μg/mL, Jackson ImmunoResearch Laboratories, West Grove, Pa.). Results were obtained from six separate experiments performed in duplicates. 250 cells per condition were counted for each individual experiment. Statistical calculations were made by using Student's t test.

[1] = tested on: PLP139-151 EAE in SJL/J mice; test: PLP139-151 EAE after vaccination with γ^377-395 peptide; type: in vivo, mouse
Experimental: (§1) Induction of EAE. EAE was induced in 6 week old female SJL/J or C57BL/6 mice by subcutaneous immunization with 150 μg PLP139-151 (HSLGKWLGHPDKF) (SEQ ID NO: 5). American Peptide Company and Azco Pharmchem, San Jose, Calif.) or 50 μg MOG35-55 ([…]) (SEQ ID NO: 6), Sigma-Aldrich, St. Louis, Mo.) in complete Freund's adjuvant (Sigma-Aldrich, St. Louis, Mo.) supplemented with […] heat inactivated mycobacterium tuberculosis H37Ra (Difco Laboratories, Detroit, Mich.). Mice were injected intravenously with 200 ng pertussis toxin (Sigma-Aldrich, St. Louis, Mo.) on days 0 and 2 of the immunization. Mice were scored daily. 0: no symptoms, 1: loss of tail tone, 2: ataxia, 3: hindlimb paralysis, 4: hindlimb and forelimb paralysis, 5: moribund Data are represented as the mean clinical score and are mean±SEM. Statistical calculations were made by using Student's t test.
Fibrinogen γ^377-395 peptide vaccination. Vaccination was performed as described (56) with the following modifications. Five week old female SJL/J mice were immunized with 200 μg fibrinogen γ^377-395 peptide (YSMKETTMKIIPFNRLSIG) (SEQ ID NO: 2), Azco Pharmchem, San Jose, Calif.) emulsified with an equal volume of incomplete freund's adjuvant (Sigma-Aldrich, St. Louis, Mo.). Mice were immunized four times in alternating rear flanks over the course of two weeks. Control animals were immunized with incomplete Freund's adjuvant.
(§2) Histopathology. Histopathologic analysis and quantification of inflammation and demyelination in mouse tissue was performed on cryostat or paraffin sections as described (57). Sections were stained with luxol fast blue and nuclear red. Spinal cord sections were fixed with 2% PFA for 10 minutes at 4° C. and immunostained with a sheep anti-fibrinogen antibody (1:200, US Biological, Swampscott, Mass.), rat anti-CD11b (1:5, Chemicon), von Willebrand Factor (1:1000, Dakocytomation, Glostrup, Denmark), iNOS (polyclonal Chemicon, Temecula, Calif., 1:750), Mac-3 (rat-anti-mouse, Pharmingen, San Diego, Calif., 1:200), CNPase (monoclonal, Sternberger monoclonals, Lutherville, Md., 1:2000). For human MS, paraffin embedded material was obtained from the Archives of the Center for Brain Research, Medical University of Vienna. Double immunofluorescence was performed with antibodies against CD68 and fibrin. Images were collected using an Axioplan 2 Zeiss microscope with an Axiocam HRc camera or were processed for confocal microscopy using Olympus and Zeiss confocal microscopes.
(§3) Rotarod behavior test. The rotarod assay was performed on a TSE accelerating Rotarod apparatus (TSE Technical and Scientific Equipment GmbH) as described (58). Rotarod assays were conducted with a 300 second maximum time limit and means were collected for at least three trials. Statistical calculations were made by using Students t test.

[2] = tested on: PLP139-151 EAE in SJL/J mice; test: Remitting-relapsing PLP139-151 EAE, intranasal γ^377-395 peptide after first paralytic episode; type: in vivo, mouse
Experimental: as §1
Intranasal γ^377-395 peptide administration. Fibrinogen γ^377-395 peptide (YSMKETTMKIIPFNRLSIG) (SEQ ID NO: 2), Azco Pharmchem, San Jose, Calif.) was resuspended in 0.9% NaCl at a concentration of 3 mg/mL. Peptides were aliquoted as single doses and stored at […]. Mice were administered 5 μL of peptide or 0.9% NaCI, as a control, in each nare daily using a P10 micropipettor (Gilson, Middleton, Wis.) beginning after the peak of the first paralytic episode.
as §2, §3

[3] = 30 μg i.n. daily, day 30 after immunization

## tyr-ser-met-lys-lys-thr-thr-met-lys-ile-ile-pro-phe-asn-arg-leu-thr-ile-gly (YSMKKTTMKIIPFNRLTIG) (listed as Homo sapiens) [γ^377-395 peptide]
splenocytes
  peripheral immune cells (CD4, CD8, CD11b, CD11c, CD19, B220) in splenocytes: did not reveal any differences; also recorded: no significant effect
Primary microglia
  effect on LPS-mediated microglia activation: did not inhibit
Primary microglia; listed as γ^377-395
  effect on LPS-mediated microglia activation: has no effect
Primary microglia; M1/70 10 μg/mL or γ^377-395 peptide 200 μM daily, fibrinogen alone 71±4.9%
  % of activated microglia in fibrinogen treated cells in the presence of blocker: 38.3±9.8%
Primary microglia; added to microglia on immobilized fibrinogen
  fibrinogen-induced morphologic activation of microglia (in words): attenuated
Primary microglia; peptide 200 μM
  effect on activation state of untreated microglia: did not affect
[1]; 8/15, all control mice 15/15, 200 μg peptide in IFA four times before EAE induction
  vaccinated mice that developed EAE: 53%
[1]; vaccinated mice
  rotarod: increase in motor strength and coordination vs control mice: 76%
[1]; vaccinated mice, control 2.3±1
  histopathology index, brain: 1.5±2
[1]; vaccinated mice, control 12±5.2
  histopathology index, spinal cord: 6.5±5.9
[1]; vaccinated mice, control group 2.5, scale 0-5
  average clinical score: 1.1
[2]; 30 μg i.n. daily, after the first relapse on day 29
  increase of motor functions vs control mice: 1.4 fold
[2]; [3]
  reduction in Mac-3 (microglia/macrophage marker) immunostaining: 2 fold
  reduction in iNOS immunostaining: 4.2 fold
[2]; 30 μg intranasally daily after first paralytic episode, n=14 vs control n=13
  relapse of paralysis (clinical score): did not show a relapse
[2]; peptide-treated vs control
  T cell infiltration: no major differences
